Patent US8580790B2, “(Heterocycle/condensed piperidine)-(piperazinyl)-1-alkanone or (heterocycle/condensed pyrrolidine)-(piperazinyl)-1-alkanone derivatives and use thereof as p75 inhibitors” (Sanofi, priority 2009, dated 2013)

Legend:
[1] = system: human neuroblastoma strains SH-SY-5Y and SK-N-BE Bep 75; assay: Measurement of NGF-induced apoptosis (cell death detection ELISA); format: cell-based; conditions: SH-SY5Y, NGF 10 ng/ml, 48 h (SH-SY-5Y) or 24 h (SK-N-BE Bep 75), read-out: IC50 of inhibitory activity on NGF-induced apoptosis
Protocol: The SH-SY-5Y strain (human neuroblastoma) is cultured conventionally in a DMEM culture medium (Dulbecco's Modified Eagle's Medium) (Gibco BRL, France) containing FCS (5%) (foetal calf serum) (Boehringer Mannheim, Germany), sodium pyruvate (1 mM) and glutamine (4 mM) in culture flasks coated with collagen (Becton Dickinson, France).
(§1) The SK-N-BE parent strain (human neuroblastoma) and the Bep 75 clone, stably expressing the whole form of the human p75^NTR receptor (SK-N-BE Bep 75) are cultured conventionally in an RPMI culture medium containing FCS (5%), sodium pyruvate (1 mM) and glutamine (4 mM). For the SK-N-BE Bep 75 cells, hygromycin ([…] of medium) is added as selection agent.
The cells (human neuroblastoma strains SH-SY-5Y and SK-N-BE Bep 75) are placed in 35 mm diameter Petri dishes (Biocoat collagen I, (10^5 cells/well)) in an appropriate culture medium containing 5% of FCS, for 24 h. […] The degrees of apoptosis are measured 48 hours after the treatments in the case of the SH-SY-5Y strain, and 24 hours after in the case of the SK-N-BE Bep 75 strain, by quantification of the DNA fragment-associated cytoplasmic histones (cell death detection ELISA, Boehringer Mannheim, Germany). The degrees of apoptosis are expressed as amount of oligonucleosomes/10^5 cells. […]

human p75^NTR receptor = target: T1, human p75^NTR receptor (Homo sapiens, UniProt P08138); assay: Dimerization of the p75NTR receptor independently of its ligand (soluble p75NTR-alkaline phosphatase binding to SK-N-BE Bep 75 cells); format: cell-based; conditions: soluble p75NTR-alkaline phosphatase 10 nM, 1 h preincubation at 37° C.
T1 construct: the whole form of the human p75^NTR receptor; expressed in transfected cells; the soluble AP fusion comes from the supernatant of transiently transfected HEK293 cells
T1 sequence (P08138 29-427): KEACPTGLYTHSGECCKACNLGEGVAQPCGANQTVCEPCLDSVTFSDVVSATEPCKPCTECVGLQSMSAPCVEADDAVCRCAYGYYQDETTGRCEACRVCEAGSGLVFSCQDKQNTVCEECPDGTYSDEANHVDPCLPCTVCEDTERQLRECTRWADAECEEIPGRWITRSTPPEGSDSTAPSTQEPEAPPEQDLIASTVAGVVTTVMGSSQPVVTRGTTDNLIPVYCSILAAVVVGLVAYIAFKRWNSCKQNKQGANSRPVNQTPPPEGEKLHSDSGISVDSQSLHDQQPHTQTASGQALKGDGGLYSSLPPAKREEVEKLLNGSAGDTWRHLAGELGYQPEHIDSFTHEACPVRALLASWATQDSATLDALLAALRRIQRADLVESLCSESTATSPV
Protocol: as §1
Study of the dimerization of the p75^NTR receptor independently of its ligand.
The p75^NTR receptor dimerization study is carried out on a cell suspension of the SK-N-BE Bep 75 strain. The cells (2.5×10^4 cells/well) are placed in wells (96-well plate) for 24 h, and then preincubated for 1 h at 37° C. in the presence or absence of the compounds according to the invention. Supernatant is then added, this supernatant being derived from the culture of HEK293 human cells of renal origin expressing, after 48 h of transfection, and secreting a soluble form of the p75^NTR receptor (extracellular part of the receptor) coupled to an alkaline phosphatase, at the final concentration of 10 nM. The quantification of the specific binding of the soluble p75^NTR receptor to the receptor present on SK-N-BE Bep 75 cells is determined by measuring the alkaline phosphatase enzyme activity after incubation of the cells for 1 hour at 37° C. in the presence of the supernatant. After filtration and transfer of the filters into 24-well plates, the alkaline phosphatase activity is determined by adding CDP-Star chemiluminescent substrate (ready-to-use, Roche). The concentrations inhibiting 50% (Cl50) of the dimerization of the p75^NTR receptor, of the compounds according to the invention, are low and range from 10^−6 to 10^−11M.

Row | SMILES | IC50 [1] [nM] | IC50 (human p75^NTR receptor) [nM] | melting point [°C]
1 | O=C(CN1CCN(c2ccc(C(F)(F)F)cn2)C(=O)C1)N1CCc2nc(-c3ccccc3)sc2C1 [compound 11, 4-[2-oxo-2-(2-phenyl-6,7-dihydro-4H-thiazolo[5,4-c]pyridin-5-yl)ethyl]-1-(5-trifluoromethylpyridin-2-yl)piperazin-2-one] | 4.46 | 1.9 | 
2 | C[C@@H]1CN(c2ccc(C(F)(F)F)cn2)C[C@H](C)N1CC(=O)N1CCc2nc(-c3ccccc3)sc2C1 [compound 9, 2-[(2S,6R)-2,6-dimethyl-4-(5-trifluoromethylpyridin-2-yl)piperazin-1-yl]-1-(2-phenyl-6,7-dihydro-4H-thiazolo[5,4-c]pyridin-5-yl)ethanone] | 0.72 | 0.73 | 
3 | COC(=O)c1ccc(N2C3CCC2CN(CC(=O)N2CCc4nn(-c5ccccc5)cc4C2)C3)nc1 [compound 19, 6-{3-[2-oxo-2-(2-phenyl-2,4,6,7-tetrahydropyrazolo[4,3-c]pyridin-5-yl)ethyl]-3,8-diazabicyclo[3.2.1]oct-8-yl}nicotinic acid methyl ester] |  | 14 | 204 to 205
4 | O=C(O)c1ccc(N2C3CCC2CN(CC(=O)N2CCc4nn(-c5ccccc5)cc4C2)C3)nc1 [compound 24, 6-{3-[2-oxo-2-(2-phenyl-2,4,6,7-tetrahydropyrazolo[4,3-c]pyridin-5-yl)ethyl]-3,8-diazabicyclo[3.2.1]oct-8-yl}nicotinic acid] |  | 1.55 | 202 to 206
